PubChem BioAssay (NCI)
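These data come from cells grown in 96-well plates and exposed to compound for 48 hours at five concentrations. GI50 is the concentration that inhibits growth by half. TGI is the concentration that stops growth completely.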

Assays:
Assay in all cases: NCI-60 cell line screen, 48 h
M14 melanoma = test system: M14 melanoma
HCT-116 colon = test system: HCT-116 colon
A498 renal = test system: A498 renal
RPMI-8226 leukemia = test system: RPMI-8226 leukemia
UACC-257 melanoma = test system: UACC-257 melanoma
MCF7 breast = test system: MCF7 breast
ACHN renal = test system: ACHN renal
HL-60(TB) leukemia = test system: HL-60(TB) leukemia
SK-MEL-2 melanoma = test system: SK-MEL-2 melanoma
SF-539 CNS = test system: SF-539 CNS
RXF 393 renal = test system: RXF 393 renal
BT-549 breast = test system: BT-549 breast
IGROV1 ovarian = test system: IGROV1 ovarian
SR leukemia = test system: SR leukemia
PC-3 prostate = test system: PC-3 prostate
LOX IMVI melanoma = test system: LOX IMVI melanoma
UO-31 renal = test system: UO-31 renal
COLO 205 colon = test system: COLO 205 colon
MOLT-4 leukemia = test system: MOLT-4 leukemia
HS 578T breast = test system: HS 578T breast
CCRF-CEM leukemia = test system: CCRF-CEM leukemia
SK-MEL-28 melanoma = test system: SK-MEL-28 melanoma
NCI-H23 lung = test system: NCI-H23 lung
EKVX NSCLC = test system: EKVX NSCLC
SN12C renal = test system: SN12C renal
HOP-92 NSCLC = test system: HOP-92 NSCLC
DU-145 prostate = test system: DU-145 prostate
SW-620 colon = test system: SW-620 colon
SK-MEL-5 melanoma = test system: SK-MEL-5 melanoma
NCI/ADR-RES ovarian = test system: NCI/ADR-RES ovarian
SNB-75 CNS = test system: SNB-75 CNS
786-0 renal = test system: 786-0 renal
SF-268 CNS = test system: SF-268 CNS
MDA-MB-231 breast = test system: MDA-MB-231 breast
OVCAR-8 ovarian = test system: OVCAR-8 ovarian
U251 CNS = test system: U251 CNS
KM12 colon = test system: KM12 colon
OVCAR-5 ovarian = test system: OVCAR-5 ovarian
NCI-H460 lung = test system: NCI-H460 lung
TK-10 renal = test system: TK-10 renal
OVCAR-3 ovarian = test system: OVCAR-3 ovarian
HCT-15 colon = test system: HCT-15 colon
UACC-62 melanoma = test system: UACC-62 melanoma
HT29 colon = test system: HT29 colon
K-562 leukemia = test system: K-562 leukemia
NCI-H226 lung = test system: NCI-H226 lung
SNB-19 CNS = test system: SNB-19 CNS
SK-OV-3 ovarian = test system: SK-OV-3 ovarian
MDA-MB-435 = test system: MDA-MB-435
OVCAR-4 ovarian = test system: OVCAR-4 ovarian
MALME-3M melanoma = test system: MALME-3M melanoma
T-47D breast = test system: T-47D breast
HCC-2998 colon = test system: HCC-2998 colon
CAKI-1 renal = test system: CAKI-1 renal
SF-295 CNS = test system: SF-295 CNS
A549 NSCLC = test system: A549 NSCLC
NCI-H522 lung = test system: NCI-H522 lung
MDA-N = test system: MDA-N
HOP-62 NSCLC = test system: HOP-62 NSCLC

Compound: O=C1/C(=C/c2ccc(Br)cc2)COc2ccc(O)c(O)c21
- GI50 (M14 melanoma): 1410 nM
- TGI (M14 melanoma): 3470 nM
- GI50 (HCT-116 colon): 892 nM
- TGI (HCT-116 colon): 2400 nM
- GI50 (A498 renal): 2970 nM
- TGI (A498 renal): 7750 nM
- GI50 (RPMI-8226 leukemia): 221 nM
- TGI (RPMI-8226 leukemia): 1020 nM
- GI50 (UACC-257 melanoma): 1710 nM
- TGI (UACC-257 melanoma): 6780 nM
- GI50 (MCF7 breast): 353 nM
- TGI (MCF7 breast): 1670 nM
- GI50 (ACHN renal): 828 nM
- TGI (ACHN renal): 2090 nM
- GI50 (HL-60(TB) leukemia): 442 nM
- TGI (HL-60(TB) leukemia): 3280 nM
- GI50 (SK-MEL-2 melanoma): 1690 nM
- TGI (SK-MEL-2 melanoma): 4530 nM
- GI50 (SF-539 CNS): 436 nM
- TGI (SF-539 CNS): 1190 nM
- GI50 (RXF 393 renal): 1100 nM
- TGI (RXF 393 renal): 2430 nM
- GI50 (BT-549 breast): 1200 nM
- TGI (BT-549 breast): 3000 nM
- GI50 (IGROV1 ovarian): 631 nM
- TGI (IGROV1 ovarian): 2160 nM
- GI50 (SR leukemia): 452 nM
- TGI (SR leukemia): > 100000 nM
- GI50 (PC-3 prostate): 599 nM
- TGI (PC-3 prostate): 2420 nM
- GI50 (LOX IMVI melanoma): 261 nM
- TGI (LOX IMVI melanoma): 807 nM
- GI50 (UO-31 renal): 307 nM
- TGI (UO-31 renal): 1070 nM
- GI50 (COLO 205 colon): 1530 nM
- TGI (COLO 205 colon): 3180 nM
- GI50 (MOLT-4 leukemia): 431 nM
- TGI (MOLT-4 leukemia): > 100000 nM
- GI50 (HS 578T breast): 1540 nM
- TGI (HS 578T breast): 6770 nM
- GI50 (CCRF-CEM leukemia): 462 nM
- TGI (CCRF-CEM leukemia): > 100000 nM
- GI50 (SK-MEL-28 melanoma): 1550 nM
- TGI (SK-MEL-28 melanoma): 3250 nM
- GI50 (NCI-H23 lung): 1620 nM
- TGI (NCI-H23 lung): 3650 nM
- GI50 (EKVX NSCLC): 1450 nM
- TGI (EKVX NSCLC): 3140 nM
- GI50 (SN12C renal): 617 nM
- TGI (SN12C renal): 2320 nM
- GI50 (HOP-92 NSCLC): 1260 nM
- TGI (HOP-92 NSCLC): 5490 nM
- GI50 (DU-145 prostate): 1310 nM
- TGI (DU-145 prostate): 2900 nM
- GI50 (SW-620 colon): 671 nM
- TGI (SW-620 colon): 2220 nM
- GI50 (SK-MEL-5 melanoma): 1400 nM
- TGI (SK-MEL-5 melanoma): 2840 nM
- GI50 (NCI/ADR-RES ovarian): 665 nM
- TGI (NCI/ADR-RES ovarian): > 25800 nM
- GI50 (SNB-75 CNS): 1230 nM
- TGI (SNB-75 CNS): 3010 nM
- GI50 (786-0 renal): 678 nM
- TGI (786-0 renal): 2570 nM
- GI50 (SF-268 CNS): 1260 nM
- TGI (SF-268 CNS): 3400 nM
- GI50 (MDA-MB-231 breast): 682 nM
- TGI (MDA-MB-231 breast): 2270 nM
- GI50 (OVCAR-8 ovarian): 675 nM
- GI50 (U251 CNS): 588 nM
- TGI (U251 CNS): 2040 nM
- GI50 (KM12 colon): 1110 nM
- TGI (KM12 colon): 3350 nM
- GI50 (OVCAR-5 ovarian): 1500 nM
- TGI (OVCAR-5 ovarian): 3040 nM
- GI50 (NCI-H460 lung): 1680 nM
- TGI (NCI-H460 lung): 4060 nM
- GI50 (TK-10 renal): 1700 nM
- TGI (TK-10 renal): 3200 nM
- GI50 (OVCAR-3 ovarian): 493 nM
- TGI (OVCAR-3 ovarian): 1560 nM
- GI50 (HCT-15 colon): 302 nM
- TGI (HCT-15 colon): 1510 nM
- GI50 (UACC-62 melanoma): 1070 nM
- TGI (UACC-62 melanoma): 2400 nM
- GI50 (HT29 colon): 2300 nM
- TGI (HT29 colon): 5790 nM
- GI50 (K-562 leukemia): 282 nM
- TGI (K-562 leukemia): > 100000 nM
- GI50 (NCI-H226 lung): 2010 nM
- TGI (NCI-H226 lung): 5520 nM
- GI50 (SNB-19 CNS): 1380 nM
- TGI (SNB-19 CNS): 3050 nM
- GI50 (SK-OV-3 ovarian): 2630 nM
- TGI (SK-OV-3 ovarian): 11600 nM
- GI50 (MDA-MB-435): 427 nM
- TGI (MDA-MB-435): 1590 nM
- GI50 (OVCAR-4 ovarian): 1310 nM
- TGI (OVCAR-4 ovarian): 2590 nM
- GI50 (MALME-3M melanoma): 1110 nM
- TGI (MALME-3M melanoma): 3350 nM
- GI50 (T-47D breast): 906 nM
- TGI (T-47D breast): 3160 nM
- GI50 (HCC-2998 colon): 1540 nM
- TGI (HCC-2998 colon): 3030 nM
- GI50 (CAKI-1 renal): 944 nM
- TGI (CAKI-1 renal): 2250 nM
- GI50 (SF-295 CNS): 2570 nM
- TGI (SF-295 CNS): 6830 nM
- GI50 (A549 NSCLC): 1770 nM
- TGI (A549 NSCLC): 6770 nM
- GI50 (NCI-H522 lung): 158 nM
- TGI (NCI-H522 lung): 348 nM

Compound: N#Cc1c(-c2ccc(Cl)cc2)c2c([nH]c1=O)-c1ccccc1SC2
- TGI (M14 melanoma): > 100000 nM
- TGI (HCT-116 colon): > 100000 nM
- TGI (A498 renal): > 100000 nM
- TGI (RPMI-8226 leukemia): 98800 nM
- TGI (UACC-257 melanoma): > 100000 nM
- TGI (MCF7 breast): > 100000 nM
- TGI (HL-60(TB) leukemia): 56700 nM
- TGI (SK-MEL-2 melanoma): > 100000 nM
- TGI (SF-539 CNS): 68000 nM
- TGI (RXF 393 renal): 77400 nM
- TGI (BT-549 breast): > 100000 nM
- TGI (IGROV1 ovarian): > 100000 nM
- TGI (SR leukemia): > 100000 nM
- TGI (PC-3 prostate): > 100000 nM
- TGI (LOX IMVI melanoma): 73900 nM
- TGI (UO-31 renal): > 100000 nM
- TGI (COLO 205 colon): 50300 nM
- TGI (MOLT-4 leukemia): 94800 nM
- TGI (HS 578T breast): > 100000 nM
- TGI (CCRF-CEM leukemia): 88600 nM
- TGI (SK-MEL-28 melanoma): > 100000 nM
- TGI (MDA-N): > 100000 nM
- TGI (NCI-H23 lung): > 100000 nM
- TGI (EKVX NSCLC): 70800 nM
- TGI (SN12C renal): > 100000 nM
- TGI (HOP-92 NSCLC): 71900 nM
- TGI (DU-145 prostate): > 100000 nM
- TGI (SW-620 colon): > 100000 nM
- TGI (SK-MEL-5 melanoma): > 100000 nM
- TGI (NCI/ADR-RES ovarian): > 100000 nM
- TGI (SNB-75 CNS): 69500 nM
- TGI (786-0 renal): > 100000 nM
- TGI (SF-268 CNS): > 100000 nM
- TGI (MDA-MB-231 breast): > 100000 nM
- TGI (OVCAR-8 ovarian): > 100000 nM
- TGI (U251 CNS): > 100000 nM
- TGI (KM12 colon): > 100000 nM
- TGI (OVCAR-5 ovarian): > 100000 nM
- TGI (NCI-H460 lung): > 100000 nM
- TGI (TK-10 renal): 52900 nM
- TGI (OVCAR-3 ovarian): 92700 nM
- TGI (HCT-15 colon): > 100000 nM
- TGI (UACC-62 melanoma): > 100000 nM
- TGI (HT29 colon): > 100000 nM
- TGI (K-562 leukemia): > 100000 nM
- TGI (NCI-H226 lung): > 100000 nM
- TGI (SNB-19 CNS): > 100000 nM
- TGI (HOP-62 NSCLC): > 100000 nM
- TGI (SK-OV-3 ovarian): > 100000 nM
- TGI (MDA-MB-435): > 100000 nM
- TGI (OVCAR-4 ovarian): > 100000 nM
- TGI (MALME-3M melanoma): > 100000 nM
- TGI (CAKI-1 renal): > 100000 nM
- TGI (SF-295 CNS): > 100000 nM
- TGI (A549 NSCLC): > 100000 nM
